Among the test systems are HCT-116 colon; TK-10 renal; UACC-257 melanoma; MALME-3M melanoma; U251 CNS; SF-295 CNS; MDA-MB-231 breast; CCRF-CEM leukemia; NCI-H460 lung; OVCAR-8 ovarian.
Common to all, as to assay: inhibition of tumour cell growth, NCI panel, 48 h

SMILES strings stand for the structures.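 1) Cells in 96-well plates. 2) Compound, 48 h, 5 concentrations. 3) Linear interpolation between surrounding doses. 4) Unreached endpoint = highest concentration. The concentration for 50% growth inhibition is given as GI50. Definition used: TGI = concentration required for complete inhibition of growth.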

For `CS(=O)(=O)c1cc(=O)c2ccccc2s1`, the TGI in the assay with HCT-116 colon turned out to be 4.05 µM; in the assay on TK-10 renal, 13.7 µM; with UACC-257 melanoma it was 7.92 µM; in the assay with MALME-3M melanoma, 3.5 µM; with U251 CNS, 37.6 µM; with SF-295 CNS, 24.8 µM. The TGI amounted to 31.4 µM in the assay on MDA-MB-231 breast, 3.93 µM in the assay on CCRF-CEM leukemia, 41.2 µM in the assay with NCI-H460 lung and 6.22 µM in the assay on OVCAR-8 ovarian.

On to `O=C(/C(=C/c1cccc([N+](=O)[O-])c1)c1ccccc1)c1ccccc1`, for which the GI50 in the assay on HCT-116 colon is 2.01 µM; in the assay with TK-10 renal, 4.19 µM; in the assay with UACC-257 melanoma, 4.17 µM; in the assay on MALME-3M melanoma it was 2.32 µM; with U251 CNS, 2.72 µM; with SF-295 CNS, 4.08 µM. The GI50 in the assay on MDA-MB-231 breast was 4.01 µM; in the assay on CCRF-CEM leukemia, 2.17 µM; with NCI-H460 lung, 3.32 µM. The TGI with HCT-116 colon was 4.25 µM; in the assay with TK-10 renal it was 21.4 µM; in the assay on UACC-257 melanoma it was 18.8 µM; with MALME-3M melanoma, 5.81 µM; with U251 CNS, 8.16 µM; in the assay on SF-295 CNS, 20.2 µM. In addition, the TGI in the assay with MDA-MB-231 breast is above 100 µM; in the assay on CCRF-CEM leukemia, 27.8 µM; with NCI-H460 lung, 12.6 µM.

As to `c1cc2c(ncc3cscc32)s1`, the TGI in the assay on HCT-116 colon is above 31.6 µM; in the assay on TK-10 renal, above 100 µM; with UACC-257 melanoma it was above 100 µM; in the assay on MALME-3M melanoma it was above 100 µM; in the assay with U251 CNS, above 100 µM; in the assay on SF-295 CNS it was above 100 µM. The TGI in the assay with MDA-MB-231 breast, in the assay on CCRF-CEM leukemia, in the assay with NCI-H460 lung and in the assay on OVCAR-8 ovarian was above 100 µM throughout.

`C=C1CC[C@@H]2[C@](C)(COC(C)=O)[C@H](OC(C)=O)CC[C@@]2(C)[C@@H]1CC(Nc1ccc(S(=O)(=O)Nc2ncccn2)cc1)C1=CCOC1=O` (stereo partly specified): the GI50 is 0.879 µM with HCT-116 colon; 2.77 µM in the assay with TK-10 renal; 2.34 µM with UACC-257 melanoma; 1.74 µM with U251 CNS; 6.07 µM in the assay on SF-295 CNS; 1.95 µM in the assay on MDA-MB-231 breast. The GI50 was 0.738 µM with CCRF-CEM leukemia, 1.98 µM with NCI-H460 lung and 1.48 µM in the assay on OVCAR-8 ovarian. The TGI with HCT-116 colon is 2.49 µM; with TK-10 renal, 6.03 µM; in the assay with UACC-257 melanoma, 6.07 µM; in the assay on U251 CNS it was 3.28 µM; in the assay with SF-295 CNS, 18.7 µM; in the assay on MDA-MB-231 breast it was 3.93 µM. Further, the TGI in the assay on CCRF-CEM leukemia was 3.41 µM; in the assay on NCI-H460 lung, 4.06 µM; in the assay on OVCAR-8 ovarian it was 3.55 µM.

Regarding `Cn1cnc([N+](=O)[O-])c1[Se]c1nc(N)nc2c1ncn2C1OC(CO)C(O)C1O` (stereo unspecified), the TGI in the assay on HCT-116 colon, with TK-10 renal, in the assay with UACC-257 melanoma, in the assay with MALME-3M melanoma, with U251 CNS and with SF-295 CNS was above 100 µM each time. The TGI in the assay with MDA-MB-231 breast, in the assay with CCRF-CEM leukemia, in the assay on NCI-H460 lung and in the assay with OVCAR-8 ovarian was above 100 µM in each case.

`CC(C)CCCC(=O)CCCCCCC(=O)CCN(O)C(=O)C(N)CO` (stereo unspecified): the TGI in the assay with HCT-116 colon is 38 µM; in the assay on TK-10 renal, 32.2 µM; in the assay on UACC-257 melanoma, 35.1 µM; with MALME-3M melanoma it was 36.6 µM; in the assay with U251 CNS it was 65 µM; in the assay with SF-295 CNS, 36.3 µM. Moreover, the figures for the TGI with MDA-MB-231 breast, in the assay on CCRF-CEM leukemia and with OVCAR-8 ovarian were 34.7 µM, above 100 µM and 39.3 µM, respectively.

In the case of `C=C[C@H]1C[C@@H]2C[C@@H]3[C@H]4C/C=C\C(=O)NCCCC5NC(=O)C(=C(O)/C=C/[C@@H]4CC(=O)[C@H]3[C@@H]2[C@H]1C)C5=O` (stereo partly specified), the GI50 was 0.287 µM in the assay on HCT-116 colon; 0.192 µM in the assay on TK-10 renal; 0.191 µM in the assay on UACC-257 melanoma; 0.225 µM in the assay with MALME-3M melanoma; 1.61 µM in the assay with U251 CNS; 0.232 µM in the assay with MDA-MB-231 breast. In addition, the GI50 in the assay with NCI-H460 lung was 0.348 µM; in the assay with OVCAR-8 ovarian, 0.193 µM. Moreover, the TGI worked out at 1.1 µM in the assay on HCT-116 colon; 0.419 µM in the assay with TK-10 renal; 0.369 µM with UACC-257 melanoma; 0.56 µM in the assay with MALME-3M melanoma; 3.07 µM in the assay on U251 CNS; 0.537 µM in the assay with MDA-MB-231 breast. Further, the TGI is 1.2 µM in the assay on NCI-H460 lung and 0.38 µM with OVCAR-8 ovarian.

Regarding `Cc1ccc(NC(=O)NCCCOc2ccc(N3C(N)=NC(N)=NC3(C)C)cc2Cl)cc1S(=O)(=O)F`, the GI50 was 2.22 µM in the assay with HCT-116 colon; 10.9 µM in the assay on UACC-257 melanoma; 12 µM in the assay with MALME-3M melanoma; 4.04 µM in the assay with U251 CNS; 26.5 µM in the assay on SF-295 CNS; 11.4 µM in the assay on MDA-MB-231 breast. Besides, the GI50 with CCRF-CEM leukemia is 9.69 µM; in the assay with NCI-H460 lung, 1.68 µM; in the assay on OVCAR-8 ovarian, 7.85 µM. For the same compound, the TGI was above 100 µM in the assay with HCT-116 colon; above 100 µM in the assay on UACC-257 melanoma; 81 µM in the assay on MALME-3M melanoma; above 100 µM in the assay on U251 CNS; above 100 µM with SF-295 CNS; above 100 µM in the assay on MDA-MB-231 breast. The TGI with CCRF-CEM leukemia, in the assay with NCI-H460 lung and in the assay on OVCAR-8 ovarian was above 100 µM in each case.

As for `CC[CH2][Sn]([Cl])([Cl])[CH2]CC.Oc1ccccc1C=NCCN=Cc1ccccc1O`, the GI50 with HCT-116 colon was 4.89 µM; in the assay with UACC-257 melanoma, 3.61 µM; with MALME-3M melanoma it was 1.57 µM; in the assay with U251 CNS, 3.11 µM; with SF-295 CNS it was 14.7 µM; with MDA-MB-231 breast, 3.96 µM. Moreover, the GI50 is 2.16 µM in the assay with CCRF-CEM leukemia, 15.6 µM in the assay on NCI-H460 lung and 12.3 µM in the assay with OVCAR-8 ovarian. For the same compound, the TGI with HCT-116 colon was found to be 16.3 µM; in the assay with UACC-257 melanoma it was 17.8 µM; in the assay with MALME-3M melanoma it was 4.61 µM; with U251 CNS it was 12.5 µM; in the assay with SF-295 CNS it was 32.7 µM; in the assay with MDA-MB-231 breast it was 15.8 µM. Further, the TGI in the assay on CCRF-CEM leukemia amounted to 41.8 µM; in the assay on NCI-H460 lung, 33 µM; in the assay on OVCAR-8 ovarian it was 27.7 µM.

On to `COc1cc2c(c(OC)c1OC)C(=O)[C@@H]1c3ccc([N+](=O)[O-])cc3C(=O)N(CCCBr)[C@H]21`, for which the GI50 is 4.59 µM with HCT-116 colon; 8.04 µM in the assay with TK-10 renal; 5.21 µM in the assay with UACC-257 melanoma; 23.3 µM in the assay with U251 CNS; 2.04 µM in the assay on SF-295 CNS; 2.99 µM with MDA-MB-231 breast. Also, the GI50 in the assay on NCI-H460 lung was 8.15 µM; in the assay with OVCAR-8 ovarian, 10.2 µM. Besides, the TGI is 51 µM in the assay with HCT-116 colon; 34.9 µM in the assay with TK-10 renal; 30.8 µM in the assay on UACC-257 melanoma; above 100 µM in the assay with U251 CNS; 19.7 µM in the assay on SF-295 CNS; 25.3 µM in the assay with MDA-MB-231 breast. Moreover, the TGI in the assay with NCI-H460 lung turned out to be 62.2 µM; with OVCAR-8 ovarian, 37.6 µM.

Take `C/C=C(\C)CC/C=C/CO[Si](C)(C)C(C)(C)C`: the TGI in the assay with HCT-116 colon, in the assay with TK-10 renal, in the assay on UACC-257 melanoma, in the assay with MALME-3M melanoma, in the assay with SF-295 CNS and in the assay on MDA-MB-231 breast was above 100 µM each time. Besides, the TGI with CCRF-CEM leukemia was 49.6 µM; with NCI-H460 lung, above 100 µM; in the assay with OVCAR-8 ovarian it was above 100 µM.

As to `COc1ccc(/C=C\c2cc(OC)c(OC)c(OC)c2)cc1OC(=O)NCCN(C)C`, the GI50 in the assay on TK-10 renal was above 47 µM. Further, the TGI in the assay with TK-10 renal was above 100 µM; in the assay with MALME-3M melanoma, 98.3 µM; in the assay on MDA-MB-231 breast, 0.023 µM; with NCI-H460 lung, 0.00485 µM; in the assay on OVCAR-8 ovarian, 0.638 µM.

As for `N#CCC(=O)NC1C2CC3CC(C2)CC1C3` (stereo unspecified), the TGI came to 29.2 µM with HCT-116 colon; 46.2 µM with TK-10 renal; 47.2 µM in the assay on UACC-257 melanoma; 42.6 µM in the assay on MALME-3M melanoma; 29.8 µM in the assay with U251 CNS; 32 µM in the assay with SF-295 CNS. In addition, the TGI is above 100 µM in the assay with CCRF-CEM leukemia, 32.3 µM with NCI-H460 lung and 33.1 µM in the assay with OVCAR-8 ovarian.

Regarding `COc1ccc(-n2cc(-c3cc(OC)c(OC)c(OC)c3)[nH]c2=O)cc1Cl`, the GI50 was above 100 µM in the assay with HCT-116 colon; 55.2 µM in the assay on TK-10 renal; above 100 µM in the assay with MALME-3M melanoma; 37.7 µM in the assay on U251 CNS; 48.9 µM with SF-295 CNS; 34.9 µM in the assay with MDA-MB-231 breast. The GI50 in the assay on CCRF-CEM leukemia and in the assay with NCI-H460 lung was above 100 µM throughout. Moreover, the TGI in the assay on HCT-116 colon, in the assay on TK-10 renal, in the assay on MALME-3M melanoma, in the assay on U251 CNS, in the assay on SF-295 CNS and in the assay on MDA-MB-231 breast was above 100 µM in each case. Besides, the TGI with CCRF-CEM leukemia and in the assay with NCI-H460 lung was above 100 µM in each case.

As for `CCC(=O)c1c(C(F)(F)F)n([O-])c2ccc(C)cc2[n+]1=O`, the GI50 was 13.8 µM in the assay on HCT-116 colon; 0.812 µM in the assay with TK-10 renal; 11.3 µM in the assay with UACC-257 melanoma; 10.7 µM in the assay on U251 CNS; 3.93 µM in the assay on SF-295 CNS; 12.1 µM with MDA-MB-231 breast. The values for the GI50 in the assay with CCRF-CEM leukemia, with NCI-H460 lung and in the assay with OVCAR-8 ovarian were 18.2 µM, 3.95 µM and 2.83 µM, respectively. For the same compound, the TGI is above 50 µM with HCT-116 colon; 6.61 µM in the assay on TK-10 renal; above 50 µM with UACC-257 melanoma; above 50 µM in the assay with U251 CNS; 15.8 µM with SF-295 CNS; 37.9 µM in the assay with MDA-MB-231 breast. The TGI was above 50 µM in the assay with CCRF-CEM leukemia, 18.3 µM in the assay on NCI-H460 lung and above 50 µM in the assay with OVCAR-8 ovarian.

The values above are taken from PubChem BioAssay (NCI).
